From US10175256B2, “Compositions and methods utilizing lysophosphatidylcholine scaffolds” (National University Of Singapore, priority 2013, dated 2019)

Molecular target: T1, Mfsd2a (Mus musculus, UniProt Q9DA75)
T1 sequence (Q9DA75 1-534): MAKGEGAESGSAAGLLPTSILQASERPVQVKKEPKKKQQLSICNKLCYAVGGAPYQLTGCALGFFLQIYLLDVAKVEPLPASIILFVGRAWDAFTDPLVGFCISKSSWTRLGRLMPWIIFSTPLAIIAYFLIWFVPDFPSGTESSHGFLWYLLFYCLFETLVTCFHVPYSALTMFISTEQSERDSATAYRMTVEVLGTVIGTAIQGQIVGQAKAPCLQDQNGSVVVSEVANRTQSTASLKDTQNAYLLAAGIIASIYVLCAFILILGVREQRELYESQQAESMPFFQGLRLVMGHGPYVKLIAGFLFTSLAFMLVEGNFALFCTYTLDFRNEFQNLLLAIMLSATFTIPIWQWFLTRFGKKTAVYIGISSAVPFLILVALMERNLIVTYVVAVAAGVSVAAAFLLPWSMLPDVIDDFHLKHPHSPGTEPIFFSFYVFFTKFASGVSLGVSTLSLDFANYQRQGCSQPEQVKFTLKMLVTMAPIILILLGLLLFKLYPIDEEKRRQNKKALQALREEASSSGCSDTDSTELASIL
Assay: Competition transport assay with LPC-[3H]palmitate as ligand
Type: cell-based
Parameters: expressed in transfected cells; host or cells: HEK293
Conditions: 25 μM LPC-[3H]palmitate; for competition for transport/uptake of LPC-[3H]palmitate: 10-fold molar excess (250 μM) competitor, 30 mins (PAF 15 mins); for competition of foscholines with LPC-[3H]palmitate: 250 μM competitor, 15 mins
Experimental: Briefly, 24 h post transfection of HEK293 cells with pcDNA3.1Mfsd2a (WT), pcDNA3.1Mfsd2aD92A (D92A), pcDNA3.1Mfsd2aD96A, or pcDNA3.1 (mock) plasmids were washed once with serum-free DMEM medium before addition of a mixture of 25 μM radiolabeled LPC-palmitate and 250 μM cold competitors, which were dissolved in 12% BSA. Total BSA concentration was kept constant in samples with or without cold competitors. Assays were performed at 37° C. for 30 mins. Competition assays with other LPC analogs such as foscholine detergents, and PAF were performed under the same conditions except for 15 mins. The reduced reaction time was necessary in order to limit potential negative effects of detergents and bioactive lipids on cell survival. All assays were performed in 12 well-plates with triplicates and at 37° C.
We next sought to determine ligand specificity and the chemical features of the LPC ligands that are required for transport by Mfsd2a.

Compound	competition for transport/uptake of LPC-[3H]palmitate	competition for transport/uptake of LPC-[3H]palmitate (listed as sphingosine 1-phosphate)	competition of foscholines with LPC-[3H]palmitate
lysophosphatidylethanolamine [LPE]	weak competition		
CCCCCCCCCCCCC/C=C/[C@@H](O)[C@@H](N)COP(=O)(O)O [sphingosine-1-phosphate]	not a competitor	did not compete	
CCCCCCCCCCCCOP(=O)([O-])OCC[N+](C)(C)C [Fos-12]			did not compete
CCCCCCCCCCCCCCCCOC[C@@H](O)COP(=O)([O-])OCC[N+](C)(C)C [lysoplatelet activating factor]	strong competitors		
CCCCCCCCCCCCCCCCOP(=O)([O-])OCC[N+](C)(C)C [Miltefosine]			strong competition
